This is an account of results in patent US10555960B2, “Use of an aminoglycoside for nonsense mutation suppression and the treatment of disease” (PTC Therapeutics, Inc., priority 2015, dated 2020).

The assay concerns premature stop codon. The assay is described as follows: Premature stop codon readthrough (nonsense suppression), full length protein production by enzyme-linked immunosorbent assay. It counts as cell-based. As to the method:
Table 1 also provides the median maximum fold increase of the full length protein production over DMSO-treated samples as also determined by enzyme-linked immunosorbent assay within the concentration range tested (up to 1 mM).

Setting [1] is: median, enzyme-linked immunosorbent assay, concentration range tested up to 1 mM.
The mark [2] stands for this setting: median, enzyme-linked immunosorbent assay, within concentration range tested (up to 1 mM).

Structures can show the parent of a compound that is named as a salt. Where two headings read alike, the source gives them in different places.

Take `CN[C@@H]1[C@@H](O)[C@@H](O[C@@H]2[C@@H](O)[C@H](O[C@H]3O[C@H](CO)[C@@H](O)[C@H](O)[C@H]3N)[C@@H](N)C[C@H]2N)OC[C@H]1O` [Gentamicin A sulfate]: the “EC2X (median concentration that doubles the intensity of the nonsense suppression)” value (“EC2X” for short) under setting [1] was determined as 566 µM. Further, the “Max Fold over DMSO (median maximum fold increase of full length protein production over DMSO-treated samples)” value under setting [2] turned out to be 4.1.
The matching figures for `CN[C@@H]1[C@@H](O)[C@@H](O[C@@H]2[C@@H](O)[C@H](O[C@H]3O[C@H](CO)[C@@H](O)[C@H](O)[C@H]3N)[C@@H](N)C[C@H]2N)OC[C@]1(C)O` [Compound 1 sulfate, (2R,3S,4R,5R,6S)-5-amino-6-(((1R,2S,3S,4R,6S)-4,6-diamino-3-(((2R,3R,4R,5R)-3,5-dihydroxy-5-methyl-4-(methylamino)tetrahydro-2H-pyran-2-yl)oxy)-2-hydroxycyclohexyl)oxy)-2-(hydroxymethyl)tetrahydro-2H-pyran-3,4-diol]: 19 µM and 47.
The matching figures for `CN[C@@H]1[C@@H](O)[C@@H](O[C@@H]2[C@@H](O)[C@H](O[C@H]3O[C@H]([C@H](C)N)CC[C@H]3N)[C@@H](N)C[C@H]2N)OC[C@]1(C)O.O=S(=O)(O)O` [Gentamicin C2a sulfate]: 260 µM and 3.1.
For the compound Gentamicin C1a sulfate, the “EC2X” value worked out at 135 µM and the “Max Fold over DMSO (median maximum fold increase of full length protein production over DMSO-treated samples)” value stood at 2.6.
As for `CN[C@@H]1[C@@H](O)[C@@H](O[C@@H]2[C@@H](O)[C@H](O[C@H]3O[C@H]([C@@H](C)N)CC[C@H]3N)[C@@H](N)C[C@H]2N)OC[C@]1(C)O` [Gentamicin C2 sulfate], the “EC2X” value under setting [1] came to 95 µM. Further, the “Max Fold over DMSO (median maximum fold increase of full length protein production over DMSO-treated samples)” value under setting [2] is given as 5.5.
Take `CN[C@@H]1[C@@H](O)[C@@H](O[C@@H]2[C@@H](O)[C@H](O[C@H]3O[C@H]([C@@H](C)NC)CC[C@H]3N)[C@@H](N)C[C@H]2N)OC[C@]1(C)O.O=S(=O)(O)O` [Gentamicin C1 sulfate]: the “EC2X” value under setting [1] was determined as 100 µM. In addition, the “Max Fold over DMSO (median maximum fold increase of full length protein production over DMSO-treated samples)” value under setting [2] amounted to 3.7.
